We go through 25 compounds from patent US8372863B2, “Tetrahydro-1H-pyrrolo fused pyridones” (Merck Sharp & Dohme Corp., priority 2008, dated 2013).

Counter-ions that a name gives are not always drawn.

PHD2, sequence (Q9GZT9 whole entry): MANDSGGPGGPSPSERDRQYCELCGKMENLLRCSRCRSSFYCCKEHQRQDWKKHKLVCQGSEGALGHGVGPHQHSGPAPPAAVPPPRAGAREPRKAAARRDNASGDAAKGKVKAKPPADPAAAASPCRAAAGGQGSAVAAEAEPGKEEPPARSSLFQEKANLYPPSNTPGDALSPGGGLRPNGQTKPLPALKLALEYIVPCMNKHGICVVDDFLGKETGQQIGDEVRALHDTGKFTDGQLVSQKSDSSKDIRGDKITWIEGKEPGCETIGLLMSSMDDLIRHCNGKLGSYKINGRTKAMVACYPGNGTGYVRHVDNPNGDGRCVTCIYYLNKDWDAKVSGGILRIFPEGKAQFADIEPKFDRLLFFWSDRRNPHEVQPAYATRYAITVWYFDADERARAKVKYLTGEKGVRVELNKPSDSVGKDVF

The assay has as its target PHD2 (Homo sapiens, UniProt Q9GZT9). Description: PHD2 / HIF-1α peptide hydroxylation assay with time resolved fluorescence readout (PHD2 binding activity). Particulars: FLAG-tagged full length PHD2; 0.2 μM 2-oxoglutarate, 0.5 μM HIF-1α peptide; read-out: PHD2 Activity (PHD2 binding activity expressed as IC50). Type of assay: biochemical. On the procedure:
After a 30 min preincubation at room temperature, the enzymatic reactions were initiated by the addition of 4 μL of substrates (final concentrations of 0.2 μM 2-oxoglutarate and 0.5 μM HIF-1α peptide biotinyl-DLDLEMLAPYIPMDDDFQL). After 2 hr at room temperature, the reactions were terminated and signals were developed by the addition of a 25 μL quench/detection mix to a final concentration of 1 mM ortho-phenanthroline, 0.1 mM EDTA, 0.5 nM anti-(His)6 LANCE reagent (Perkin-Elmer Life Sciences), 100 nM AF647-labeled streptavidin (Invitrogen), and 2 μg/ml (His)6-VHL complex (S. Tan(2001) Protein Expr. Purif 21, 224-234). The ratio of time resolved fluorescence signals at 665 and 620 nm was determined, and percent inhibition was calculated relative to an uninhibited control sample run in parallel.
`O=C(O)CNC(=O)c1c(O)c2c(n(Cc3ccc(C(F)(F)F)cc3)c1=O)CN(C(=O)c1cccnc1)C2` [Example 25, N-({4-hydroxy-2-oxo-6-(pyridin-3-ylcarbonyl)-1-[4-(trifluoromethyl)benzyl]-2,5,6,7-tetrahydro-1H-pyrrolo[3,4-b]pyridin-3-yl}carbonyl)glycine]: the IC50 is under 10 nM.
Then `Cc1ccc(C(=O)N2Cc3c(O)c(C(=O)NCC(=O)O)c(=O)n(Cc4ccc(C(F)(F)F)cc4)c3C2)cn1` [Example 26, N-({4-hydroxy-6-[(6-methylpyridin-3-yl)carbonyl]-2-oxo-1-[4-(trifluoromethyl)benzyl]-2,5,6,7-tetrahydro-1H-pyrrolo[3,4-b]pyridin-3-yl}carbonyl)glycine], with under 10 nM; and `CN1CCC[C@H]1C(=O)N1Cc2c(O)c(C(=O)NCC(=O)O)c(=O)n(Cc3ccc(C(F)(F)F)cc3)c2C1` [Example 27, N-({4-hydroxy-6-(1-methyl-L-prolyl)-2-oxo-1-[4-(trifluoromethyl)benzyl]-2,5,6,7-tetrahydro-1H-pyrrolo[3,4-b]pyridin-3-yl}carbonyl)glycine], with under 10 nM.
Under `O=C(O)CNC(=O)c1c(O)c2c(n(Cc3ccc(C(F)(F)F)cc3)c1=O)CN(C(=O)[C@@H]1CCC(=O)N1)C2` [Example 28, N-({4-hydroxy-2-oxo-6-(5-oxo-L-prolyl)-1-[4-(trifluoromethyl)benzyl]-2,5,6,7-tetrahydro-1H-pyrrolo[3,4-b]pyridin-3-yl}carbonyl)glycine] stands under 10 nM; under `O=C(O)CNC(=O)c1c(O)c2c(n(Cc3ccc(C(F)(F)F)cc3)c1=O)CN(C(=O)c1cscn1)C2` [Example 29, N-({4-hydroxy-2-oxo-6-(1,3-thiazol-4-ylcarbonyl)-1-[4-(trifluoromethyl)benzyl]-2,5,6,7-tetrahydro-1H-pyrrolo[3,4-b]pyridin-3-yl}carbonyl)glycine], under 10 nM; under `O=C(O)CNC(=O)c1c(O)c2c(n(Cc3ccc(C(F)(F)F)cc3)c1=O)CN(C(=O)c1cncs1)C2` [Example 30, N-({4-hydroxy-2-oxo-6-(1,3-thiazol-5-ylcarbonyl)-1-[4-(trifluoromethyl)benzyl]-2,5,6,7-tetrahydro-1H-pyrrolo[3,4-b]pyridin-3-yl}carbonyl)glycine], under 10 nM.
Then `Cc1cc(C(=O)N2Cc3c(O)c(C(=O)NCC(=O)O)c(=O)n(Cc4ccc(C(F)(F)F)cc4)c3C2)nn1C` [Example 31, N-({6-[(1,5-dimethyl-1H-pyrazol-2-ium-3-yl)carbonyl]-4-hydroxy-2-oxo-1-[4-(trifluoromethyl)benzyl]-2,5,6,7-tetrahydro-1H-pyrrolo[3,4-b]pyridin-3-yl}carbonyl)glycine chloride], with under 10 nM; and `O=C(O)CNC(=O)c1c(O)c2c(n(Cc3ccc(C(F)(F)F)cc3)c1=O)CN(C(=O)c1ccno1)C2` [Example 33, N-({4-hydroxy-6-(isoxazol-5-ylcarbonyl)-2-oxo-1-[4-(trifluoromethyl)benzyl]-2,5,6,7-tetrahydro-1H-pyrrolo[3,4-b]pyridin-3-yl}carbonyl)glycine], with 10 to 100 nM; and `O=C(O)CNC(=O)c1c(O)c2c(n(Cc3ccc(C(F)(F)F)cc3)c1=O)CN(C(=O)c1nccs1)C2` [Example 34, N-({4-hydroxy-2-oxo-6-(1,3-thiazol-2-ylcarbonyl)-1-[4-(trifluoromethyl)benzyl]-2,5,6,7-tetrahydro-1H-pyrrolo[3,4-b]pyridin-3-yl}carbonyl)glycine], with under 10 nM.
Turning to `O=C(O)CNC(=O)c1c(O)c2c(n(Cc3ccc(C(F)(F)F)cc3)c1=O)CN(C(=O)c1csnn1)C2` [Example 35, N-({4-hydroxy-2-oxo-6-(1,2,3-thiadiazol-4-ylcarbonyl)-1-[4-(trifluoromethyl)benzyl}-2,5,6,7-tetrahydro-1H-pyrrolo[3,4-b]pyridin-3-yl}carbonyl)glycine], the IC50 was under 10 nM.
In the case of `O=C(O)CNC(=O)c1c(O)c2c(n(Cc3ccc(C(F)(F)F)cc3)c1=O)CN(C(=O)c1cocn1)C2` [Example 37, N-({4-hydroxy-6-(1,3-oxazol-4-ylcarbonyl)-2-oxo-1-[4-(trifluoromethyl)benzyl]-2,5,6,7-tetrahydro-1H-pyrrolo[3,4-b]pyridin-3-yl}carbonyl)glycine], the IC50 was under 10 nM.
Then `O=C(O)CNC(=O)c1c(O)c2c(n(Cc3ccc(-c4ccccc4)cc3)c1=O)CN(C(=O)c1cscn1)C2` [Example 38, N-{[1-(biphenyl-4-ylmethyl)-4-hydroxy-2-oxo-6-(1,3-thiazol-4-ylcarbonyl)-2,5,6,7-tetrahydro-1H-pyrrolo[3,4-b]pyridin-3-yl]carbonyl}glycine], with under 10 nM; and `O=C(O)CNC(=O)c1c(O)c2c(n(Cc3ccc(C(F)(F)F)cc3)c1=O)CN(Cc1ccc(Cl)cc1)C2` [Example 39, N-({6-(4-chlorobenzyl)-4-hydroxy-2-oxo-1-[4-(trifluoromethyl)benzyl]-2,5,6,7-tetrahydro-1H-pyrrolo[3,4-b]pyridin-6-ium-3-yl}carbonyl)glycine trifluoroacetate], with under 10 nM.
As for `O=C(O)CNC(=O)c1c(O)c2c(n(Cc3ccc(C(F)(F)F)cc3)c1=O)CN(Cc1cccc(Cl)c1)C2` [Example 40, N-({6-(3-chlorobenzyl)-4-hydroxy-2-oxo-1-[4-(trifluoromethyl)benzyl]-2,5,6,7-tetrahydro-1H-pyrrolo[3,4-b]pyridin-6-ium-3-yl}carbonyl)glycine chloride], the IC50 lay within 10 to 100 nM.
Under `CCN1Cc2c(O)c(C(=O)NCC(=O)O)c(=O)n(Cc3ccc(C(F)(F)F)cc3)c2C1` [Example 41, N-({6-ethyl-4-hydroxy-2-oxo-1-[4-(trifluoromethyl)benzyl]-2,5,6,7-tetrahydro-1H-pyrrolo[3,4-b]pyridin-6-ium-3-yl}carbonyl)glycine trifluoroacetate] stands 10 to 100 nM; under `N#Cc1cccnc1N1Cc2c(O)c(C(=O)NCC(=O)O)c(=O)n(Cc3ccc(C(F)(F)F)cc3)c2C1` [Example 42, N-({6-(3-cyanopyridinium-2-yl)-4-hydroxy-2-oxo-1-[4-(trifluoromethyl)benzyl]-2,5,6,7-tetrahydro-1H-pyrrolo[3,4-b]pyridin-3-yl}carbonyl)glycine trifluoroacetate], under 10 nM; under `C=CCCC(=O)N1Cc2c(O)c(C(=O)NCC(=O)O)c(=O)n(Cc3cccc(-c4ccccc4)c3)c2C1` [Example 43, N-{[1-(biphenyl-3-ylmethyl)-4-hydroxy-2-oxo-6-pent-4-enoyl-2,5,6,7-tetrahydro-1H-pyrrolo[3,4-b]pyridin-3-yl]carbonyl}glycine], under 10 nM.
Then `O=C(O)CNC(=O)c1c(O)c2c(n(Cc3cccc(-c4ccccc4)c3)c1=O)CN(C(=O)c1cscn1)C2` [Example 44, N-{[1-(biphenyl-3-ylmethyl)-4-hydroxy-2-oxo-6-(1,3-thiazol-4-ylcarbonyl)-2,5,6,7-tetrahydro-1H-pyrrolo[3,4-b]pyridin-3-yl]carbonyl}glycine], with under 10 nM.
Under `O=C(O)CNC(=O)c1c(O)c2c(n(Cc3cccc(-c4ccc(Cl)cc4)c3)c1=O)CN(C(=O)c1cscn1)C2` [Example 45, N-{[1-[(4′-chlorobiphenyl-3-yl)methyl]-4-hydroxy-2-oxo-6-(1,3-thiazol-4-ylcarbonyl)-2,5,6,7-tetrahydro-1H-pyrrolo[3,4-b]pyridin-3-yl]carbonyl}glycine] stands under 10 nM; under `O=C(O)CNC(=O)c1c(O)c2c(n(Cc3cccc(-c4cncnc4)c3)c1=O)CN(C(=O)c1cscn1)C2` [Example 46, N-{[4-hydroxy-2-oxo-1-(3-pyrimidin-5-ylbenzyl)-6-(1,3-thiazol-4-ylcarbonyl)-2,5,6,7-tetrahydro-1H-pyrrolo[3,4-b]pyridin-3-yl]carbonyl}glycine], under 10 nM.
Take `O=C(O)CNC(=O)c1c(O)c2c(n(Cc3cccc(-c4ccccc4Cl)c3)c1=O)CN(C(=O)c1cscn1)C2` [Example 47, N-{[1-[(2′-chlorobiphenyl-3-yl)methyl]-4-hydroxy-2-oxo-6-(1,3-thiazol-4-ylcarbonyl)-2,5,6,7-tetrahydro-1H-pyrrolo[3,4-b]pyridin-3-yl]carbonyl}glycine]: the IC50 was under 10 nM.
Then `C=CCCC(=O)N1Cc2c(O)c(C(=O)NCC(=O)O)c(=O)n(Cc3ccc(-c4ccccc4)cc3)c2C1C` (stereo not shown) [Example 48, N-{[1-(biphenyl-4-ylmethyl)-4-hydroxy-7-methyl-2-oxo-6-pent-4-enoyl-2,5,6,7-tetrahydro-1H-pyrrolo[3,4-b]pyridin-3-yl]carbonyl}glycine], with under 10 nM.
On to `O=C(O)CNC(=O)c1c(O)c2c(n(Cc3ccccc3-c3ccccc3)c1=O)CN(C(=O)c1cscn1)C2` [Example 49, N-{[1-(biphenyl-2-ylmethyl)-4-hydroxy-2-oxo-6-(1,3-thiazol-4-ylcarbonyl)-2,5,6,7-tetrahydro-1H-pyrrolo[3,4-b]pyridin-3-yl]carbonyl}glycine], for which the half-maximal inhibitory concentration (IC50) is under 10 nM.
Under `O=C(O)CNC(=O)c1c(O)c2c(n(Cc3cccc(-c4cccc(Cl)c4)c3)c1=O)CN(C(=O)c1cscn1)C2` [Example 50, N-{[1-[(3′-chlorobiphenyl-3-yl)methyl]-4-hydroxy-2-oxo-6-(1,3-thiazol-4-ylcarbonyl)-2,5,6,7-tetrahydro-1H-pyrrolo[3,4-b]pyridin-3-yl]carbonyl}glycine] stands under 10 nM; under `O=C(O)CNC(=O)c1c(O)c2c(n(Cc3cccc(-c4ccncc4)c3)c1=O)CN(C(=O)c1cscn1)C2` [Example 51, N-{[4-hydroxy-2-oxo-1-(3-pyridin-4-ylbenzyl)-6-(1,3-thiazol-3-ium-4-ylcarbonyl)-2,5,6,7-tetrahydro-1H-pyrrolo[3,4-b]pyridin-3-yl]carbonyl}glycine trifluoroacetate], under 10 nM.

The term IC50 denotes the concentration at which inhibition is half-maximal.
